This is an account of results in US12465629B2, “Prevention and treatment of organ injuries” (Farsight Medical Technology (Shanghai) Co., Ltd., priority 2020, dated 2025).

Structures are written as SMILES.

The subject of data set [1] is LPS induced lung injury in SD rats. Kind of data set: Acute lung injury model study II (LPS induced) in rats. The format is in vivo. To be noted: 1 and 3 mg/kg iv (G4, G5) at 1 h, 7 h, 24 h after LPS.
Protocol: A study was conducted to assess the effect of combined administration of dexamethasone and Compound I in an acute lung injury model. LPS (lipopolysaccharide) was administered to induce lung injury in SD rats (SPF grade male, body weight 180-200 g).
Study group 1 (G1) served as sham control group (no induced acute lung injury) and Group 2 (G2) served as model group (acute lung injury, no treatment).
Dexamethasone, prepared as an aqueous solution, prepared by dissolving the appropriate amount in saline, was used as a positive control in group 3 (G3), and was also administered to group 6 (G6) and group 7 (G7), which also received Compound I. A lyophilized powder of Compound I, was dissolved in an aqueous reconstitution solution comprising Tween 80, acetic acid, sodium acetate, and further diluted with saline before application.
The animals were weighed. LPS (5 mg/kg) was then injected via the trachea of the rat after anesthesia and surgery to expose the trachea (all groups except for G1 where no LPS was injected). […]
Non-invasive lung function tests were determined at 24 hours and at 48 hours (end of the study). […]
Whole lung tissue samples were taken at end of study for histological examination. The histological examination comprised random selection of visual field areas which were blind scored for lung injury. […]
Data set [2] is described as follows: Comparative pharmacokinetic study, tissue distribution. Details: species or system SD rats. The conditions noted are these: rat, in vivo, iv, 3 mg/kg. As to the method: At the respective time points, blood samples and respective organ/tissues were collected and processed according to standard procedures The concentration of the respective drugs in the respective tissues were then measured using a validated LC-Ms/Ms method.

The test system of data set [3] is LPS induced lung injury in C57BL/6 mice. The experiment in a line: Acute lung injury model study (LPS induced) in mice. It is filed as in vivo. As to the method:
Compound I was tested in an in vivo mouse model for acute lung injury.
LPS (lipopolysaccharide) was administered to induce lung injury in C57BL/6 mice. LPS elicits an acute inflammatory response in the lung, resulting in progressive damage, and necrosis of lung tissue including the bronchial wall, and alveoli.
LPS (0.3 mg/kg) was administered directly to the trachea of anaesthetized mice in study groups 2 to 6. […]
Non-invasive lung function tests including respiratory frequency, tidal volume, maximum inspiratory speeds and maximal expiratory speeds were determined on Day 2 and end of the study, 24 h after LPS was initially administered.
A significant impact was moreover observed with regards to the pathology of the lung tissue of the mice subjects. […] The histological examination comprised random selection of visual field areas which were blind scored for lung injury according to the following criteria: 1) alveolar congestion, 2) hemorrhage, 3) infiltration of inflammatory cells, and 4) thickness of alveolar wall according to a scale of 0 (minimal damage), 1, (mild damage), 2 (moderate damage), 3 (severe damage), and 4 (maximal damage). […]

One may read the Tmax as the time at which the peak concentration occurs.

Consider `C/C=C/C[C@@H](C)[C@@H](O)[C@H]1C(=O)N[C@@H](CC)C(=O)N(C)[C@H](OCCN(C)C)C(=O)N(C)[C@@H](CC(C)C)C(=O)N[C@@H](C(C)C)C(=O)N(C)[C@@H](CC(C)C)C(=O)N[C@@H](C)C(=O)N[C@H](C)C(=O)N(C)[C@@H](CC(C)C)C(=O)N(C)[C@@H](CC(C)C)C(=O)N(C)[C@@H](C(C)C)C(=O)N1C` [Compound I, [(R)-2′(2-dimethylaminoethoxy)-Sar]^3 cyclosporin A], for which the “Total bronchial and arteriole injury scoring” value in data set [1] (FIG. 5B) is “performed significantly better than the model (G2) and the positive group (G3)”. Moreover, the “Total alveolar injury scoring” value in data set [1] (vs model G2, FIG. 5A) was “significant positive effect in terms of decreasing the severity of injuries to alveolar tissue”. Also, in data set [2] (both sexes, Sprague-Dawley (SD)), the Tmax amounted to 30 min. Further, the Tissue distribution entry in data set [2] is “distribute to a greater degree to organ tissues, such as the kidney, and the lung”. The “Non-invasive lung function tests (tidal volume, breath rate, peak inspiratory and expiratory flow)” value in data set [3] (ip 0.5 h and 6 h after LPS, 1, 5, 10 mg/kg, in particular 10 mg/kg, 24 h after LPS, FIG. 1) was “statistically relevant improvements in some of the lung function tests”. Also, the “Histological lung injury scoring (bronchial, arteriole and alveolar tissue)” value in data set [3] (ip 0.5 h and 6 h after LPS, all doses 1, 5, 10 mg/kg, vs model group G2, FIG. 2) is “significant effect in terms of decreasing the severity of injuries to bronchial, arteriole and alveolar tissue”.
